The test system of assay [1] is laccase. Put plainly: Laccase inhibition (ABTS colorimetric method), ant sample. The class given is biochemical. The settings on record: anti-laccase activity, ABTS substrate, read-out: IC50 Acromyrmex octospinosus. The procedure: (§1) Crushing was performed in mortars placed on ice, using pestles. […] After obtaining crushed matter of homogeneous texture, the whole was centrifuged. Centrifugation was performed at 4° C., 15,000 rpm for 20 min. For protein precipitation, the supernatant was 80% saturated with ammonium sulphate ((NH4)2SO4). After total dissolution of the ammonium sulphate, the solution obtained is placed at 4° C. for 12 hours. The solution was then centrifuged at a temperature of 4° C., at 15,000 rpm, for 20 min. The pellet obtained is redissolved in a minimum of cold distilled water and then dialysed against 5 litres of distilled water at 4° C. for 12 hours. The extract thus obtained constitutes the crude enzyme extract. These extracts were aliquoted and then stored at -20° C. […] Briefly, ABTS is diluted to 27.4 mg/L in […] buffer solution (pH 5.2). 150 μL of ABTS solution is incubated with 100 μL of test solution and then incubated for 30 min at 37° C. The measurement of OD at 405 nm is used to determine the amount of oxidised ABTS using Beer-Lambert's law (epsilon=36,000 mM). […] The method was published by Bourbonnais et al. in 1990 (Oxidation of non-phenolic substrates. An expanded role for laccase in lignin biodegradation. FEBS, 1990, 267, 99-102). […] The inhibitors selected for analysis are compounds having antioxidant capacity.

Assay [2] relates to laccase. Put plainly: Laccase inhibition (ABTS colorimetric method), fungus garden sample. The settings on record: anti-laccase activity, ABTS substrate, read-out: IC50 Leucophorus gongylophorus. The class given is biochemical. The procedure:
as §1

In the next assay the test system is Streptomyces (NA 2B3). Briefly: Antibacterial activity using discs in Petri dishes, strain Streptomyces NA2B3. The class given is cell-based. On the procedure:
(§2) The general principle is to test in solid medium the culture of the strain in the presence of a paper disc impregnated with the molecule to be tested. For each molecule tested at least three dilutions were prepared. In the presence of a molecule, a halo, the diameter of which is related to the intensity of the inhibitory effect, appears around the paper disc. This approach provides a simple way to select antibacterial molecules and to determine the minimum inhibitory concentration (MIC) of bacterial growth.
(§3) Antibacterial activity can be measured in liquid medium (in a liquid bacterial culture) or in solid medium (on an agar Petri dish) by adding a known concentration of antibiotic. In liquid medium, inhibition is measured by an optical density (OD); in solid medium, growth inhibition is estimated by the diameter of the halo corresponding to the zone where no growth is observed.
(§4) From the isolates, a sample is taken. This is suspended in 1 mL of physiological saline solution without measuring OD.
(§5) Inoculation is performed with 100 μL of suspension using a spreader. For undiluted essential oil tests, a disc soaked in essential oil is placed in the centre of the dish. For dilutions (½; ⅕), both discs are placed in the same dish. Dilutions were prepared by diluting the essential oils in sunflower oil. A control dish was prepared and consists of an inoculate in the absence of essential oil. A second control, this time with a disc impregnated with sunflower oil, was also prepared to confirm the absence of an effect. All products were sterilised and the experiments were performed under a hood in sterile conditions.
(§6) After 4 days of growth, the inhibition diameters were measured.

Assay [3] has as its system 5 actinomycete strains isolated from fungus-growing ants. Put plainly: Antibacterial activity using discs in Petri dishes, average of 5 actinomycete strains. The class given is cell-based, Streptomyces, Tsukumurella and Gordonia. On the procedure:
as §2, §3, §4, §5, §6
This step made it possible to isolate, from ants belonging to the species Acromyrmex octospinosus, 15 actinomycete strains including 12 belonging to the genus Tsukumurella, two to the genus Streptomyces and one to the genus Gordonia. In total, 5 strains belonging to the genera Streptomyces, Tsukumurella and Gordonia were selected for the analysis of antibacterial substances.

The test system of assay [4] is laccase activity of Acromyrmex octospinosus and of Leucophorus gongylophorus. Put plainly: Laccase inhibition (ABTS), ant and fungus garden samples together. The class given is biochemical. The settings on record: for anti-laccase activity (in words): data not shown. On the procedure:
Crushing was performed in mortars placed on ice, using pestles. Ants (2 g) and fungus garden (2 g) were crushed in 10 mL of distilled water refrigerated at 4° C. After obtaining crushed matter of homogeneous texture, the whole was centrifuged. Centrifugation was performed at 4° C., 15,000 rpm for 20 min.
For protein precipitation, the supernatant was 80% saturated with ammonium sulphate ((NH4)2SO4). After total dissolution of the ammonium sulphate, the solution obtained is placed at 4° C. for 12 hours. The solution was then centrifuged at a temperature of 4° C., at 15,000 rpm, for 20 min. The pellet obtained is redissolved in a minimum of cold distilled water and then dialysed against 5 litres of distilled water at 4° C. for 12 hours. The extract thus obtained constitutes the crude enzyme extract. These extracts were aliquoted and then stored at −20° C.
Laccase activity was evaluated using 2,2′-azino-bis(3-ethylbenzthiazoline-6-sulphonic acid) (ABTS) as oxidation control substrate. Briefly, ABTS is diluted to 27.4 mg/L in Mcllvain buffer solution (pH 5.2). 150 μL of ABTS solution is incubated with 100 μL of test solution and then incubated for 30 min at 37° C. The measurement of OD at 405 nm is used to determine the amount of oxidised ABTS using Beer-Lambert's law (epsilon=36,000 mM).
The determination of laccase activity is based on a colorimetric method where the substrate ABTS (2,2′-azino-bis(3-ethylbenzthiazoline-6-sulphonic acid) in reduced form (colourless) is oxidised (green colour) in the presence of the enzyme. The method was published by Bourbonnais et al. in 1990 (Oxidation of non-phenolic substrates. An expanded role for laccase in lignin biodegradation. FEBS, 1990, 267, 99-102). To test the inhibition of laccase activity, the molecule tested is added to the reaction mixture in amounts ranging from 0.1 mM to 100 mM. The inhibitors selected for analysis are compounds having antioxidant capacity.

pIC50: −log10 of the molar value. A value given as a limit tells only on which side of the number the result lay.

One may read the pIC50 as the IC50 on a negative log10 scale, so that one unit is a factor of ten. As to `O=C1O[C@H]([C@@H](O)CO)C(O)=C1O` [Ascorbic acid], the negative logarithm of the IC50 (pIC50) in the assay with laccase [1] and in the assay on laccase [2] was greater than 3.60 in each case.
`Cc1ccc(C(C)C)cc1O` [Carvacrol] yielded an inhibition diameter in the assay on Streptomyces (NA 2B3) (Table 5, 20%) of 2.2 ± 0.3 cm. For the same compound, the Average inhibition diameters in assay [3] (Table 6, 20%) is listed as 2.4 ± 0.3.
`O=CC=Cc1ccccc1` [Cinnamaldehyde] registered an inhibition diameter with Streptomyces (NA 2B3) (Table 5, 20%) of 3.0 ± 1.5 cm. Moreover, the Average inhibition diameters is recorded as 2.9 ± 0.6 in assay [3] (Table 6, 10%) and 4.5 ± 0.6 in assay [3] (Table 6, 20%).
Consider `CC[C@H]1OC(=O)[C@H](C)[C@@H](O[C@H]2C[C@@](C)(OC)[C@@H](O)[C@H](C)O2)[C@H](C)[C@@H](O[C@@H]2O[C@H](C)C[C@H](N(C)C)[C@H]2O)[C@](C)(O)C[C@@H](C)C(=O)[C@H](C)[C@@H](O)[C@]1(C)O` [Erythromycin, reference compound], for which the inhibition diameter in the assay on Streptomyces (NA 2B3) (Table 3, 10%) came out at 2.2 ± 0.3 cm; in the assay on Streptomyces (NA 2B3) (Table 3, 20%) it was 3.6 ± 0.4 cm; in the assay on Streptomyces (NA 2B3) (Table 5, 10%) it was 3.5 ± 0.5 cm; with Streptomyces (NA 2B3) (Table 5, 20%), 4.3 ± 0.3 cm. Moreover, the Average inhibition diameters is on record as 3.2 ± 0.4 cm in assay [3] (Table 4, 10%); 3.6 ± 0.4 cm in assay [3] (Table 4, 20%); 3.2 ± 0.4 in assay [3] (Table 6, 10%); 3.6 ± 0.4 in assay [3] (Table 6, 20%).
In the case of `C=CCc1ccc(O)c(OC)c1` [Eugenol], the Average inhibition diameters in assay [3] (Table 6, 20%) worked out at 2.9 ± 0.7. In addition, in assay [4], the “anti-laccase activity (in words)” value is given as “anti-laccase activity was observed”.
In the case of `COc1cc(/C=C/C(=O)O)ccc1O` [Ferulic acid], the pIC50 was greater than 4.00 in the assay on laccase [1] and greater than 4.30 with laccase [2].
As for `O=C(O)c1cc(O)c(O)c(O)c1` [Gallic acid], the pIC50 in the assay with laccase [1] and in the assay with laccase [2] was greater than 4.30 in each case.
Regarding `N[C@@H](CS)C(=O)O` [L-Cysteine], the pIC50 in the assay with laccase [1] and in the assay on laccase [2] was greater than 3.60 each time. For the same compound, the “inhibition of laccase activity” value in assay [4] (at concentrations above 0.5 mM (FIG. 1)) is on record as “more than 80%”.
As for `O=S(O)(O)=S` [Sodium thiosulfate], the negative-log IC50 (pIC50) in the assay on laccase [1] and with laccase [2] was greater than 3.60 throughout.
Turning to `COc1cc(C(=O)O)cc(OC)c1O` [Syringic acid], the pIC50 with laccase [1] was greater than 3.60; in the assay with laccase [2], greater than 4.00.
In the assay with Streptomyces (NA 2B3) (Table 5, 20%), `Cc1ccc(C(C)C)c(O)c1` [Thymol] returned an inhibition diameter of 1.7 ± 0.8 cm. In assay [3] (Table 6, 20%), this compound returned an Average inhibition diameters of 2.2 ± 0.3. In addition, the “anti-laccase activity (in words)” value in assay [4] was “anti-laccase activity was observed”.

These data come from patent US10888089B2, “Methods and compositions for controlling fungus-growing ants” (UNIVERSITE PARIS EST CRETEIL VAL DE MARNE, priority 2016, dated 2021).
